Results from patent publication US4889800A (priority 1987, dated 1989).
Several values for one entry are separate records, joined by “and”; a condition that tells them apart may be missing. Identical values can stand only once. Entries after “also recorded” stand apart in the source; their conditions may differ. Where no end group is shown, it is not given here.

Tested on: guinea pigs immunized with mycobacterial cell sonicates
Conditions: guinea pig, in vivo

CAKVNIKPLQDKIC (cysteine pairing not given here) [Polypeptide (diCys Terminated), residues 1-12 of the BCG-a protein with Cys at both termini]
DCH Reaction To 250 Micrograms Of Polypeptide (positive DCH reactions/total trials): 7/7 and 4/4 and 0/4 and 0/3 and 2/4 and 5/5 and 0/5
DCH reaction (in words): most pronounced DCH reactions; also recorded: developed a DCH reaction
delayed cutaneous hypersensitivity reaction (in words): more pronounced delayed cutaneous hypersensitivity reaction
